Test results published in PMC10746543, “Design principles for cyclin K molecular glue degraders” (Nature Chemical Biology, 2023).
Several values for one entry are separate records, joined by “and”; a condition that tells them apart may be missing. Identical values can stand only once. Like-named read-outs stand apart in the source and are kept apart here.

Tests used:
[1] = target: T1, CDK12–cyclin K and DDB1 (Homo sapiens, UniProt Q16531+Q9NYV4, K965R); test: TR-FRET ternary complex formation assay (compound titration); format: binding; conditions: for TR-FRET signal at compound concentration: replicate titrations
T1 construct: His6–CDK12 (a.a. 713–1,052); full-length or beta-propeller B domain deletion (ΔBPB: a.a. 396–705 deleted) constructs of His6–DDB1ΔBPB, StrepII–Avi–DDB1, or His6–Spy–DDB1; made in house; host or cells: Trichoplusia ni High Five insect cells (baculovirus)
Excerpt: A 70 μs delay was employed to reduce background fluorescence. The TR-FRET signal was obtained through calculating the ratio of 520 nm to 490 nm fluorescence, and Prism 9 (GraphPad) was used for further data analysis.

[2] = test system: cyclin K–eGFP degradation reporter; test: Cyclin K reporter stability analysis (dual-color cyclin K–eGFP reporter); format: cell-based, human
Protocol: HEK293T–Cas9 cells expressing the cyclin K–eGFP degradation reporter were resuspended at 1 × 10^6 ml^−1 and 50 µl of cell suspension was seeded in non-cell-culture-treated 384-well plates. Shortly after, cells were treated with drug or DMSO for 5 h. […] The fluorescent signal was quantified by flow cytometry (LSRFortessa flow cytometer, BD Biosciences). Using FlowJo (flow cytometry analysis software, BD Biosciences), the geometric mean of the eGFP and mCherry fluorescent signal for round and mCherry-positive cells was calculated. The ratio of eGFP to mCherry was normalized to the average of three DMSO-treated controls.

[3] = test system: HEK293T cells; test: Drug sensitivity assay (CellTiter-Glo viability) with or without MLN4924 pretreatment; format: cell-based, human; conditions: Supplementary Table 2; for EC50: Homo sapiens, HEK-293T, HEK293T viability, 72 h, compound alone, read-out: Cellular assays EC50; for Toxicity rescue: MLN4924-mediated cytotoxicity rescue, 10 µM used where n.d.
Protocol: HEK293T–Cas9 cells were resuspended at 0.15 × 10^6 ml^−1 treated with DMSO or 100 nM MLN4924 and plated on 384-well plates. After 2 h, the indicated drugs were dispensed with a D300 digital dispenser (Tecan). After 3 days of drug exposure, cell viability was assessed using the CellTiter-Glo luminescent assay (Promega, G7572) on an CLARIOstar Plus, MARS 3.4 (BMG LabTech). Cell viabilities were calculated relative to DMSO controls.

[4] = in vitro complex formation, 50 nM CDK12–cyclin K, 100 nM DDB1, text and figures, read-out: TR-FRET EC50
[5] = sheet MOESM7, read-out: log TR-FRET EC50 (converted)
[6] = source data sheet correlations, read-out: TR-FRET EC50
[7] = source data sheet correlations, read-out: DC50

T1 sequence (Q9NYV4 713-1052 K965R): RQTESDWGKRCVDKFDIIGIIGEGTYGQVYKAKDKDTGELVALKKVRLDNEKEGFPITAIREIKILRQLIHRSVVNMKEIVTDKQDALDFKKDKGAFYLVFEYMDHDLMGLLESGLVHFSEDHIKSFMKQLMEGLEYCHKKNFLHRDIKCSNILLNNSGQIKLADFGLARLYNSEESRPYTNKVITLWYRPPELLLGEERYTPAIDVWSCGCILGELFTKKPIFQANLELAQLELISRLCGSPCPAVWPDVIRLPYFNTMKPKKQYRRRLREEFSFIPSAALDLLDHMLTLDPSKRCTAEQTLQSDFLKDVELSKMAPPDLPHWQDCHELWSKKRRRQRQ
T1 sequence (O75909 1-267 partner): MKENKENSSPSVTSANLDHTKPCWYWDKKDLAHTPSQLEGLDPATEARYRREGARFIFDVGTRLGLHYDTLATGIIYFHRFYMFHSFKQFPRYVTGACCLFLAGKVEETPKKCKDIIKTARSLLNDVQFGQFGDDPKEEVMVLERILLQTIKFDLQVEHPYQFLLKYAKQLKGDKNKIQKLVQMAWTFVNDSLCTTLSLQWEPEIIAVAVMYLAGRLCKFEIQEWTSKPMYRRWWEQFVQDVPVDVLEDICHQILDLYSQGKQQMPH
T1 sequence (Q16531 whole entry): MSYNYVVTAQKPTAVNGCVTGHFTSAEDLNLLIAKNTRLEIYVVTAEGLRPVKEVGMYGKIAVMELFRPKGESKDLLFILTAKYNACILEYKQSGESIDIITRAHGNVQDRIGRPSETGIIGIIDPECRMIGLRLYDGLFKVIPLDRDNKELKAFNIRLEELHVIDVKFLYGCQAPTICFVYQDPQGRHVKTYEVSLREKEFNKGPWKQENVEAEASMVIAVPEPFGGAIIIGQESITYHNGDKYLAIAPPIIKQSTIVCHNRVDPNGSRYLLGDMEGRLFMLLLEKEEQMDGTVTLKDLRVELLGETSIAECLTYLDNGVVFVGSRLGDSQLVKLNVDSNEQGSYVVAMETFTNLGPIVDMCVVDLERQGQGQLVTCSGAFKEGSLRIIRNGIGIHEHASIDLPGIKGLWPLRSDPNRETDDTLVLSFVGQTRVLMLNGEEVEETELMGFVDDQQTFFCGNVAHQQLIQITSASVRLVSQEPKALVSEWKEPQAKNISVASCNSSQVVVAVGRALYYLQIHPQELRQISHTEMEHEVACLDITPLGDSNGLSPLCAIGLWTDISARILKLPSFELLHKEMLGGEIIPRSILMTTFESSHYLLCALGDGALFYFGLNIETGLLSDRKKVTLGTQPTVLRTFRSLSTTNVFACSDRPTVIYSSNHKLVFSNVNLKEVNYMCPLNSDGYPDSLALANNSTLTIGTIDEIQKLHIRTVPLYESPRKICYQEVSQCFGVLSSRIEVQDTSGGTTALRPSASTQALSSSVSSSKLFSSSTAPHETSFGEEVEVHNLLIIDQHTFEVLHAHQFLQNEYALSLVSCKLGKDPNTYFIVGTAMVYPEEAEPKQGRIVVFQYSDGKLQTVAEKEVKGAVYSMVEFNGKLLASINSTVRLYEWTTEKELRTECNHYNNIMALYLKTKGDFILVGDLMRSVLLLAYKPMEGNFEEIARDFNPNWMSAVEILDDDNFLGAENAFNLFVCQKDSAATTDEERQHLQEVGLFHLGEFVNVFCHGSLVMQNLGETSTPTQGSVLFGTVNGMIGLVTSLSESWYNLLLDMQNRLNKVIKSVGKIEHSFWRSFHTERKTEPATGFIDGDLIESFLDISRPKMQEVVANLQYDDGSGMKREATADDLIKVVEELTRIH

SMILES: CC[C@H](CO)Nc1nc(NCc2ccc(-c3ccccn3)c(F)c2)c2ncn(C(C)C)c2n1 [DS24]
- TR-FRET signal at compound concentration ([1]; compound concentration 0.468 nM): 0.1746 and 0.2408
- TR-FRET signal at compound concentration ([1]; compound concentration 2.16 nM): 0.2584 and 0.2684
- TR-FRET signal at compound concentration ([1]; compound concentration 3.6 nM): 0.3148 and 0.3094
- TR-FRET signal at compound concentration ([1]; compound concentration 7.92001 nM): 0.4213 and 0.4118
- TR-FRET signal at compound concentration ([1]; compound concentration 15.84 nM): 0.6123 and 0.5731
- TR-FRET signal at compound concentration ([1]; compound concentration 30.96 nM): 1.004 and 0.9206
- TR-FRET signal at compound concentration ([1]; compound concentration 62.6401 nM): 1.811 and 1.633
- TR-FRET signal at compound concentration ([1]; compound concentration 125.28 nM): 2.96 and 2.707
- TR-FRET signal at compound concentration ([1]; compound concentration 244.8 nM): 3.542 and 3.534
- TR-FRET signal at compound concentration ([1]; compound concentration 993.601 nM): 3.814 and 3.947
- TR-FRET signal at compound concentration ([1]; compound concentration 2001.6 nM): 3.863 and 4.055
- EC50 [1, 4]: 0.078 ± 0.002 µM
- EC50 [1, 5]: 0.0782 µM
- EC50 [1, 6]: 0.0782 µM
- DC50 [2, 7]: 0.172 µM
- EC50 [3]: 0.794 µM
- Toxicity rescue [3]: 270%

SMILES: CC[C@H](CO)Nc1nc(NCc2ccc(-c3ccncc3)nc2)c2ncn(C(C)C)c2n1 [DS53]
- TR-FRET signal at compound concentration 0.468 nM ([1]; compound concentration 0.468 nM, raw titration data): 0.2712 and 0.18 and 0.1818
- TR-FRET signal at compound concentration 2.16 nM ([1]; compound concentration 2.16 nM, raw titration data): 0.3079 and 0.2048 and 0.2158
- TR-FRET signal at compound concentration 3.6 nM ([1]; compound concentration 3.6 nM, raw titration data): 0.3797 and 0.262 and 0.2749
- TR-FRET signal at compound concentration 7.92001 nM ([1]; compound concentration 7.92001 nM, raw titration data): 0.5132 and 0.3757 and 0.3886
- TR-FRET signal at compound concentration 15.84 nM ([1]; compound concentration 15.84 nM, raw titration data): 0.7262 and 0.5713 and 0.5982
- TR-FRET signal at compound concentration 30.96 nM ([1]; compound concentration 30.96 nM, raw titration data): 1.044 and 0.9086 and 0.9152
- TR-FRET signal at compound concentration 62.6401 nM ([1]; compound concentration 62.6401 nM, raw titration data): 1.465 and 1.176 and 1.2036
- TR-FRET signal at compound concentration 125.28 nM ([1]; compound concentration 125.28 nM, raw titration data): 1.697 and 1.379 and 1.374
- TR-FRET signal at compound concentration 244.8 nM ([1]; compound concentration 244.8 nM, raw titration data): 1.763 and 1.446 and 1.498
- TR-FRET signal at compound concentration 993.601 nM ([1]; compound concentration 993.601 nM, raw titration data): 1.748 and 1.523 and 1.543
- TR-FRET signal at compound concentration 2001.6 nM ([1]; compound concentration 2001.6 nM, raw titration data): 1.731 and 1.529 and 1.559
- EC50 [1, 4]: 0.028 ± 0.002 µM
- EC50 [1, 6]: 0.0277 µM
- DC50 [2, 7]: 0.26 µM
- EC50 [3]: 0.635 µM
- Toxicity rescue [3]: 140%

SMILES: CC[C@H](CO)Nc1nc(NCc2ccc(CN(C)C)cc2)c2ncn(C(C)C)c2n1 [DS07]
- EC50 ([1]; Supplementary Table 2, read-out: TR-FRET EC50 TR-FRET): 0.285 µM
- TR-FRET signal, individual replicate ([1]; compound concentration 4.68 nM): 0.1397 and 0.1571
- TR-FRET signal, individual replicate ([1]; compound concentration 21.6 nM): 0.1381 and 0.1543
- TR-FRET signal, individual replicate ([1]; compound concentration 36 nM): 0.1446 and 0.1595
- TR-FRET signal, individual replicate ([1]; compound concentration 79.2001 nM): 0.1442 and 0.1633
- TR-FRET signal, individual replicate ([1]; compound concentration 158.4 nM): 0.1697 and 0.1741
- TR-FRET signal, individual replicate ([1]; compound concentration 309.6 nM): 0.1833 and 0.1813
- TR-FRET signal, individual replicate ([1]; compound concentration 626.401 nM): 0.2131 and 0.2
- TR-FRET signal, individual replicate ([1]; compound concentration 1252.8 nM): 0.2455 and 0.2204
- TR-FRET signal, individual replicate ([1]; compound concentration 2448 nM): 0.2509 and 0.2343
- TR-FRET signal, individual replicate ([1]; compound concentration 9936.01 nM): 0.2701 and 0.2518
- TR-FRET signal, individual replicate ([1]; compound concentration 20016 nM): 0.2482 and 0.2271
- EC50 [1, 5]: 0.285 µM
- DC50 ([2]; Supplementary Table 2, HEK293T cycK-eGFP reporter, 5 h, read-out: Cellular assays DC50): > 10 µM
- EC50 [3]: > 10 µM
- Toxicity rescue [3]: 0%
